Columns and labels:
Leishmania infantum [1] = assay: Antiparasitic activity against Leishmania infantum MHOM/BR/70/BH46 promastigotes infected in dog DH82 cells after 48 hrs by ELISA method; assay type: functional, cell-based; conditions: MHOM/BR/70/BH46, DH82, 48 h
Leishmania infantum [2] = assay: Antiparasitic activity against Leishmania infantum MHOM/BR/70/BH46 promastigotes infected in dog DH82 cells at 1000 uM after 48 hrs by ELISA method; assay type: functional; conditions: MHOM/BR/70/BH46, DH82, 48 h
[3] = Cytotoxicity against dog DH82 cells assessed as decrease in cell viability after 48 hrs by MTT assay; assay type: toxicity, cell-based, Canis lupus familiaris; conditions: read-out: LD50
[4] = Selectivity index, ratio of LD50 for dog DH82 cells to IC50 for Leishmania infantum MHOM/BR/70/BH46 promastigotes infected in dog DH82 cells; assay type: toxicity, cell-based; conditions: read-out: Ratio LD50/IC50
[5] = Selectivity index, ratio of LD50 for African green monkey BGM cells to IC50 for Leishmania infantum MHOM/BR/70/BH46 promastigotes infected in dog DH82 cells; assay type: toxicity, cell-based; conditions: read-out: Ratio LD50/IC50
[6] = Cytotoxicity against African green monkey BGM cells assessed as decrease in cell viability after 48 hrs by MTT assay; assay type: toxicity, cell-based; conditions: chlorocebus aethiops, read-out: LD50
[7] = Cytotoxicity against human HepG2 cells assessed as decrease in cell viability after 48 hrs by MTT assay; assay type: toxicity, cell-based; conditions: read-out: LD50
[8] = Selectivity index, ratio of LD50 for human HepG2 cells to IC50 for Leishmania infantum MHOM/BR/70/BH46 promastigotes infected in dog DH82 cells; assay type: toxicity, cell-based; conditions: read-out: Ratio LD50/IC50

Row | SMILES | IC50 (Leishmania infantum [1]) [µM] | inhibition at 1000 µM (Leishmania infantum [2]) [%] | CC50 at 48 h [3] [µM] | selectivity ratio [4] | selectivity ratio [5] | CC50 at 48 h [6] [µM] | CC50 at 48 h [7] [µM] | selectivity ratio [8]
1 | CC1(C)CC[C@]2(C(=O)OCc3c(Cl)cccc3Cl)CC[C@]3(C)C(=CC[C@@H]4[C@@]5(C)CC[C@H](O)[C@@](C)(CO)[C@@H]5CC[C@]43C)[C@@H]2C1 | 307 | 53 | 202 | 0.6 |  |  |  | 
2 | CC1(C)CC[C@]2(C(=O)OCc3cccc([N+](=O)[O-])c3)CC[C@]3(C)C(=CC[C@@H]4[C@@]5(C)CC[C@H](O)[C@@](C)(CO)[C@@H]5CC[C@]43C)[C@@H]2C1 | 9.7 | 60.5 | 63 | 6.4 | 32 | 314 | 70 | 5.2
3 | COc1cc(COC(=O)[C@]23CCC(C)(C)C[C@H]2C2=CC[C@@H]4[C@@]5(C)CC[C@H](O)[C@@](C)(CO)[C@@H]5CC[C@@]4(C)[C@]2(C)CC3)cc(OC)c1 | 110 | 89 |  |  |  |  |  | 
4 | CC1(C)CC[C@]2(C(=O)OCc3ccc(Br)cc3)CC[C@]3(C)C(=CC[C@@H]4[C@@]5(C)CC[C@H](O)[C@@](C)(CO)[C@@H]5CC[C@]43C)[C@@H]2C1 | 12 | 64.5 | 83 | 6.9 | 10 | 116 | 260 | 21.6
5 | CC1(C)CC[C@]2(C(=O)OCc3cn(Cc4cccc(Br)c4)nn3)CC[C@]3(C)C(=CC[C@@H]4[C@@]5(C)CC[C@H](O)[C@@](C)(CO)[C@@H]5CC[C@]43C)[C@@H]2C1 | 38 | 70.5 | 21 | 0.5 | 2 | 78 | 19 | 0.5
6 | CC1(C)CC[C@]2(C(=O)OCc3cn(Cc4ccc(F)cc4F)nn3)CC[C@]3(C)C(=CC[C@@H]4[C@@]5(C)CC[C@H](O)[C@@](C)(CO)[C@@H]5CC[C@]43C)[C@@H]2C1 | 11 | 87.7 | 66 | 6 | 4.9 | 158 | > 1000 | > 31.2
7 | CC1(C)CC[C@]2(C(=O)NCc3cn(Cc4ccc(Cl)cc4)nn3)CC[C@]3(C)C(=CC[C@@H]4[C@@]5(C)CC[C@H](O)[C@@](C)(CO)[C@@H]5CC[C@]43C)[C@@H]2C1 | 6 | 85.4 | 16 | 2.6 | 8.3 | 50 | 2.5 | 0.4
8 | CC1(C)CC[C@]2(C(=O)NCc3cn(Cc4ccc(F)cc4F)nn3)CC[C@]3(C)C(=CC[C@@H]4[C@@]5(C)CC[C@H](O)[C@@](C)(CO)[C@@H]5CC[C@]43C)[C@@H]2C1 |  | 41.8 |  |  |  |  |  | 
9 | CC1(C)CC[C@]2(C(=O)NCc3cn(Cc4ccccc4[N+](=O)[O-])nn3)CC[C@]3(C)C(=CC[C@@H]4[C@@]5(C)CC[C@H](O)[C@@](C)(CO)[C@@H]5CC[C@]43C)[C@@H]2C1 | 2 | 93 | 45 | 22.5 | 55.5 | 111 | > 1000 | > 500
10 | CC1(C)CC[C@]2(C(=O)NCc3cn(Cc4c(F)cccc4F)nn3)CC[C@]3(C)C(=CC[C@@H]4[C@@]5(C)CC[C@H](O)[C@@](C)(CO)[C@@H]5CC[C@]43C)[C@@H]2C1 |  | 45 |  |  |  |  |  | 
11 | CC1(C)CC[C@]2(C(=O)OCc3cn(Cc4ccccc4[N+](=O)[O-])nn3)CC[C@]3(C)C(=CC[C@@H]4[C@@]5(C)CC[C@H](O)[C@@](C)(CO)[C@@H]5CC[C@]43C)[C@@H]2C1 | 32 | 51 | 212 | 6.6 | 1.3 | 15 | 57 | 5.1
12 | COC(=O)CNC(=O)[C@]12CCC(C)(C)C[C@H]1C1=CC[C@@H]3[C@@]4(C)CC[C@H](O)[C@@](C)(CO)[C@@H]4CC[C@@]3(C)[C@]1(C)CC2 | 18 | 79.5 | 32.5 | 1.8 | 1 | 20 | 60.6 | 3.5
13 | CC1(C)CC[C@]2(C(=O)O)CC[C@]3(C)C(=CC[C@@H]4[C@@]5(C)CC[C@H](O)[C@@](C)(CO)[C@@H]5CC[C@]43C)[C@@H]2C1 [HEDERAGENIN] | 61.6 | 55.5 | < 1000 | 10 | 0.9 | 57 | < 1000 | 16.2

— ChEMBL document CHEMBL3875145, “Highly potent anti-leishmanial derivatives of hederagenin, a triperpenoid from Sapindus saponaria L” (Eur J Med Chem, 2016)
